The target of one test is T1, dopamine D-2 receptor (Rattus norvegicus, UniProt P61169).
T1 construct: Homogenized rat caudate was the source of the D-2 receptors; from tissue; host or cells: rat caudate homogenate
Put plainly: D-2 receptor binding assay, competition with [^3 H]-spiperone in homogenized rat caudate. As to conditions: rat caudate homogenate. The protocol:
Homogenized rat caudate was the source of the D-2 receptors. […] A. Frey, T. E. Cote, C. […] The molar affinity of the compound for the receptor binding site was calculated by the same method used for the D-1 receptor assay, assuming a competitive interaction between the compound and the radiolabeled ligand.

The target of another test is D-1 receptor. Kind of test: D-1 antagonist activity in adenylate cyclase assay (antagonism of dopamine-induced increase in cAMP). The format is biochemical. As to conditions: 10 μM dopamine; goldfish retina or rat striatum homogenate. The protocol: The functional activity of a compound was determined by assaying, in vitro, its ability to either stimulate the enzyme adenylate cyclase to produce more cAMP (agonist activity) or to antagonize a dopamine-induced increase in cAMP levels. The protocol for the adenylate cyclase assays was described by K. J. Watling and J. E. Dowling in J Neurochemistry, 1981, 36: 599 and by J. W. Kebabian, et al. in Proc Natl Acad Sci, USA, 1972, 69: 2145. In order to determine agonist activity, cell-free tissue homogenates are incubated in an ionic buffer solution containing ATP and the compound being evaluated. The tissue was obtained from either goldfish retina or rat striatum.
The Ki values were calculated as described by Y. C.

The next test addresses dopamine D-1 receptor (Rattus norvegicus, UniProt P18901). Put plainly: D-1 receptor binding assay, competition with [^125 I]SCH-23982 in homogenized rat caudate.

Counter-ions that a name gives are not always drawn. Like-named read-outs stand apart in the source and are kept apart here.

We go through 23 compounds from patent publication US5158948A (Abbott Laboratories, priority 1991, dated 1992).

Chain of dopamine D-1 receptor (P18901 whole entry): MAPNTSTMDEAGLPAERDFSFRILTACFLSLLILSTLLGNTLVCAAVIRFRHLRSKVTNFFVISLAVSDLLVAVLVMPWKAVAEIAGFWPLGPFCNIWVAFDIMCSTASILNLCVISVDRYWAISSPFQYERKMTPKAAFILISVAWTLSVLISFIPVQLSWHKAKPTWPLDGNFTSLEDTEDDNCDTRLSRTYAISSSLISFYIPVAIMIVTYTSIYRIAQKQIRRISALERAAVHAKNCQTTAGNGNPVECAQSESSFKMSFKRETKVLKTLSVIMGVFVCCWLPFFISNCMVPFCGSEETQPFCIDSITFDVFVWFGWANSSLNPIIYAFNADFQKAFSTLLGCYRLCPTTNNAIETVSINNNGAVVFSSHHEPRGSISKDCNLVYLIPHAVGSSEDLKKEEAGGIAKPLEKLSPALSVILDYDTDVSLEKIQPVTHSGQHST
T1 sequence (P61169 whole entry): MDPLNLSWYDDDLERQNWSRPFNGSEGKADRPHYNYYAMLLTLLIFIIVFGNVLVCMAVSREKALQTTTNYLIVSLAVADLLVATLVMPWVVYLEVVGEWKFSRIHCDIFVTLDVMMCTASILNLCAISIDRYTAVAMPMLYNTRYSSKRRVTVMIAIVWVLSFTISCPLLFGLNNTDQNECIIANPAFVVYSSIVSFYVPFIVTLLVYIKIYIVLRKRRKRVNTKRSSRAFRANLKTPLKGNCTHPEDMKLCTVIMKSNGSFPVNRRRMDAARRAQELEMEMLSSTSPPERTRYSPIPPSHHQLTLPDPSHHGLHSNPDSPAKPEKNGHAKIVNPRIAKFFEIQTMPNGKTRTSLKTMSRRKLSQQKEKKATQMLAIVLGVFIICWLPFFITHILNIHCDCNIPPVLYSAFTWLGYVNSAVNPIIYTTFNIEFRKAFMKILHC

As a reminder, the Ki is the dissociation constant of the complex between target and ligand, obtained from inhibition or displacement. What is called IC50 is the concentration that gives 50% inhibition. The low end stands for inhibition by little substance, the high end for a need for much substance. Take `CN1CCc2ccc(O)cc2C2(CCc3ccccc32)C1` (stereo not drawn) [Example 14, 8-Hydroxy-3-methyl-1-(spiro-1'-indan)-2,3,4,5-tetrahydro-1H-3-benzazepine hydrobromide]: the Ki was over 100 µM on dopamine D-2 receptor, 0.1 µM at D-1 receptor and 0.41 µM on dopamine D-1 receptor. On D-1 receptor, this compound registered an IC50 of 0.58 µM.
Take `COc1cc2c(cc1O)C1(CCCCc3ccccc31)CN(C)CC2` (stereo not drawn) [Example 32, 8-Hydroxy-7-methoxy-3-methyl-1-(spiro-5'-6',7',8',9'-tetrahydro-5'H-benzocycloheptene)-2,3,4,5-tetrahydro-1H-3-benzazepine hydrochloride]: the Ki on dopamine D-2 receptor was determined as 112 µM; at D-1 receptor it was 0.56 µM; at dopamine D-1 receptor it was 1.5 µM. Also, the IC50 at D-1 receptor worked out at 3.24 µM.
Regarding `Oc1ccc2c(c1)C1(CCCc3ccccc31)CNCC2` (stereo not drawn) [Example 28, 8-Hydroxy-1-(spiro-1'-1',2',3',4'-tetrahydronapthalene)-2,3,4,5-tetrahydro-1H-3-benzazepine hydrochloride], the Ki was determined as 136 µM at dopamine D-2 receptor and 23 µM on dopamine D-1 receptor.
Regarding `Oc1cc2c(cc1Br)CCNCC21CCc2ccccc21` (stereo not drawn) [Example 17, 7-Bromo-8-hydroxy-1-(spiro-1'-indan)-2,3,4,5-tetrahydro-1H-2,3,4,5-tetrahydro-1H-3-benzazepine hydrochloride], the inhibition constant Ki turned out to be 18 µM at dopamine D-2 receptor, 0.14 µM on D-1 receptor and 0.31 µM on dopamine D-1 receptor. Moreover, at D-1 receptor, the IC50 came to 0.83 µM.
`Oc1cc2c(cc1O)C1(CCc3ccccc31)CNCC2` (stereo not drawn) [Example 15, 7.8-Dihydroxy-1-(spiro-1'-indan)-2,3,4,5-tetrahydro-1H-3-benzazepine hydrobromide]: the Ki at dopamine D-2 receptor was over 100 µM; on dopamine D-1 receptor (read-out: D-1 Ki, rat caudate homogenate, [^125 I]SCH-23982), 0.65 µM.
For the compound `CSc1cc2c(cc1O)C1(CCCc3ccccc31)CN(C)CC2` (stereo not drawn) [Example 11, 8-Hydroxy-7-(methylthio)-3-methyl-1-(spiro-1'-1',2',3',4'-tetrahydronaphthalene)-2,3,4,5-tetrahydro-1H-3-benzazepine hydrochloride], the Ki at dopamine D-2 receptor came to 6.8 µM; on D-1 receptor it was 0.04 µM; on dopamine D-1 receptor it was 0.11 µM. Besides, at D-1 receptor, the IC50 is 0.23 µM.
The like results for `CN1CCc2ccc(O)cc2C2(CCCc3ccccc32)C1` (stereo not drawn) [Example 29, 8-Hydroxy-3-methyl-1-(spiro-1'-1',2',3',4'-tetrahydronapthalene)-2,3,4,5-tetrahydro-1H-3-benzazepine hydrochloride] were, in that order, 112 µM, 0.74 µM, 0.44 µM and 4.24 µM.
Turning to `CN1CCc2cc(Br)c(O)cc2C2(CCOc3ccccc32)C1` (stereo not drawn) [Example 137, 7-Bromo-8-hydroxy-3-methyl-1-(spiro-4'-(3',4'-dihydro-2'H-1'-benzopyran))-2,3,4,5-tetrahydro-1H-3-benzazepine hydrochloride], the values for the Ki on dopamine D-2 receptor, on D-1 receptor and at dopamine D-1 receptor were over 100 µM, 0.03 µM and 0.02 µM, respectively. Further, inhibition at D-1 receptor was half-maximal at 0.14 µM (IC50).
Take `COc1cc2c(cc1O)C1(CCCc3ccccc31)CN(C)CC2` (stereo not drawn) [Example 10, 8-Hydroxy-7-methoxy-3-methyl-1-(spiro-1'-1',2',3',4'-tetrahydronaphthalene)-2,3,4,5-tetrahydro-1H-3-benzazepine hydrochloride]: the values for the Ki on dopamine D-2 receptor, on D-1 receptor and at dopamine D-1 receptor were 562 µM, 0.06 µM and 0.05 µM, respectively. Moreover, half-maximal inhibition on D-1 receptor (IC50) required 0.32 µM.
With `COc1cc2c(cc1O)C1(CCc3ccccc31)CN(C)CC2` (stereo not drawn) [Example 25, 8-Hydroxy-7-methoxy-3-methyl-1-(spiro-1'-indan)-2,3,4,5-tetrahydro-1H-3-benzazepine hydrochloride], the results for the Ki on dopamine D-2 receptor, on D-1 receptor and on dopamine D-1 receptor were 9.5 µM, 0.02 µM and 0.16 µM, respectively. The compound further came in with an IC50 on D-1 receptor of 0.13 µM.
Consider `Oc1cc2c(cc1O)C1(CCCc3ccccc31)CNCC2` (stereo not drawn) [Example 26, 7.8-Dihydroxy-1-(spiro-1'-1',2', 3',4'-tetrahydronapthalene)-2,3,4,5-tetrahydro-1H-3-benzazepine hydrobromide], for which the Ki at dopamine D-2 receptor was over 100 µM; at dopamine D-1 receptor, 16.2 µM.
`CN1CCc2cc([N+](=O)[O-])c(O)cc2C2(CCc3ccccc32)C1` (stereo not drawn) [Example 21, 8-Hydroxy-7-nitro-3-methyl-1-(spiro-1'-indan)-2,3,4,5-tetrahydro-1H-3-benzazepine hydrochloride]: the figures for the Ki on dopamine D-2 receptor, on D-1 receptor and on dopamine D-1 receptor were 39.2 µM, 0.24 µM and 1.32 µM, respectively. The same compound registered an IC50 against D-1 receptor of 1.38 µM.
As for `COc1cc2c(cc1O)C1(CCCc3ccccc31)CNCC2` (stereo not drawn) [Example 9, 8-Hydroxy-7-methoxy-1-(spiro-1'-1',2',3',4'-tetrahydronaphthalene)-2,3,4,5-tetrahydro-1H-3-benzazepine hydrochloride], the Ki at dopamine D-2 receptor is over 100 µM; at D-1 receptor, 2.73 µM; at dopamine D-1 receptor, 2.61 µM. The 50% inhibitory concentration (IC50) on D-1 receptor amounted to 15.7 µM.
Regarding `Oc1ccc2c(c1)C1(CCc3ccccc31)CNCC2` (stereo not drawn) [Example 13, 8-Hydroxy-1-(spiro-1'-indan)-2,3,4,5-tetrahydro-1H-3-benzazepine hydrobromide], the Ki at dopamine D-2 receptor was over 100 µM; on dopamine D-1 receptor it was 15.9 µM.
Turning to `COc1cc2c(cc1O)C1(CCOc3ccccc31)CN(C)CC2` (stereo not drawn) [Example 135, 8-Hydroxy-7-methoxy-3-methyl-1-(spiro-4'-(3',4'-dihydro-2'H-1'-benzopyran))-2,3,4,5-tetrahydro-1H-3-benzazepine hydrochloride], the Ki at dopamine D-2 receptor came to 0.66 µM; on D-1 receptor, 0.17 µM; on dopamine D-1 receptor, 0.16 µM. On D-1 receptor, this compound returned a half-maximal inhibitory concentration (IC50) of 0.96 µM.
For `Oc1cc2c(cc1Br)CCNCC21CCCc2ccccc21` (stereo not drawn) [Example 30, 7-Bromo-8-hydroxy-1-(spiro-1'-1',2',3',4'-tetrahydronapthalene)-2,3,4,5-tetrahydro-1H-3-benzazepine hydrochloride], the results for the Ki on dopamine D-2 receptor, at D-1 receptor and at dopamine D-1 receptor were 14.6 µM, 0.16 µM and 0.68 µM, respectively. This compound registered an IC50 against D-1 receptor of 0.92 µM.
For `COc1cc2c(cc1O)C1(CCc3ccccc31)CNCC2` (stereo not drawn) [Example 24, 8-Hydroxy-7-methoxy-1-(spiro-1'-indan)-2,3,4,5-tetrahydro-1H-3-benzazepine hydrochloride] the same measures were over 100 µM, 0.13 µM, 0.81 µM and 0.53 µM.
As to `CN1CCc2cc(Br)c(O)cc2C2(CCCCc3ccccc32)C1` (stereo not drawn) [Example 35, 7-Bromo-8-hydroxy-3-methyl-1-(spiro-5'-6',7',8',9'-tetrahydro-5'H-benzocycloheptene)-2,3,4,5-tetrahydro-1H-3-benzazepine hydrochloride], the values for the Ki on dopamine D-2 receptor and on dopamine D-1 receptor were 7.5 µM and 0.94 µM, respectively.
The like results for `CN1CCc2ccc(O)cc2C2(CCCCc3ccccc32)C1` (stereo not drawn) [Example 33, 8-Hydroxy-3-methyl-1-(spiro-5'-6',7',8',9'-tetrahydro-5'H-benzocycloheptene)-2,3,4,5-tetrahydro-1H-3-benzazepine hydrochloride] were, in that order, 8.8 µM and 3.41 µM.
Turning to `CN1CCc2cc(Br)c(O)cc2C2(CCCc3ccccc32)C1` (stereo not drawn) [Example 31, 7-Bromo-8-hydroxy-3-methyl-1-(spiro-1'-1',2',3',4'-tetrahydronapthalene)-2,3,4,5-tetrahydro-1H-3-benzazepine hydrochloride], the Ki at dopamine D-2 receptor was found to be 10.1 µM; at D-1 receptor, 0.02 µM; on dopamine D-1 receptor it was 0.03 µM. This compound gave an IC50 against D-1 receptor of 0.14 µM.
As for `CN1CCc2cc(O)c(O)cc2C2(CCCCc3ccccc32)C1` (stereo not drawn) [Example 34, 7.8-Dihydroxy-3-methyl-1-(spiro-5'-6',7',8',9'-tetrahydro-5'H-benzocycloheptene)-2,3,4,5-tetrahydro-1H-3-benzazepine hydrobromide], the inhibition constant Ki at dopamine D-2 receptor stood at 4.2 µM; at dopamine D-1 receptor, 8 µM.
In the case of `CN1CCc2ccc(O)cc2C2(CCOc3ccccc32)C1` (stereo not drawn) [Example 136, 8-Hydroxy-3-methyl-1-(spiro-4'-(3',4'-dihydro-2'-H-1'-benzopyran))-2,3,4,5-tetrahydro-1H-3-benzazepine hydrochloride], the Ki was over 100 µM on dopamine D-2 receptor, 0.75 µM on D-1 receptor and 1.67 µM at dopamine D-1 receptor. On D-1 receptor, this compound had an IC50 of 4.34 µM.
`CN1CCc2cc(O)c(O)cc2C2(CCc3ccccc32)C1` (stereo not drawn) [Example 16, 7,8-Dihydroxy-3-methyl-1-(spiro-1'-indan)-2,3,4,5-tetrahydro-1H-3-benzazepine formate]: the Ki at dopamine D-2 receptor worked out at 5.5 µM; at D-1 receptor it was 0.09 µM; at dopamine D-1 receptor, 0.33 µM. This compound also registered an IC50 against D-1 receptor of 0.51 µM.
